Reference: the supplement of paper PMC11061612

Key:
Assay in all cases: Bliss excess, mean over the matrix (fraction); higher = more synergy
[1] = test system: C-33-A (Cervical Carcinoma)
Outline: (§1)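 Bliss excess equals the observed combination effect minus the expected value EA + EB − EA·EB, where EA and EB are the effects of each agent alone. Combination Emax is the second-highest inhibition within the matrix. Inhibition was scaled from CellTiter-Glo 2.0 luminescence, with 0 set by vehicle wells and 1 by blank wells, after 72 hours of two-drug dosing of cells plated in 1536-well plates.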

[2] = test system: CPC-N (Small Cell Lung Carcinoma)
Outline: as §1

[3] = test system: DBTRG-05MG (Glioblastoma)
Outline: as §1

ES6 (Ewing's Sarcoma) = test system: ES6 (Ewing's Sarcoma)
Outline: as §1

KALS-1 (Glioblastoma) = test system: KALS-1 (Glioblastoma)
Outline: as §1

[4] = test system: LCLC-103H (Non-Small Cell Lung Carcinoma)
Outline: as §1

[5] = test system: LS-1034 (Colorectal Carcinoma)
Outline: as §1

[6] = test system: MOLP-8 (Plasma Cell Myeloma)
Outline: as §1

[7] = test system: NAMALWA (Burkitt's Lymphoma)
Outline: as §1

[8] = test system: NCI-H1963 (Small Cell Lung Carcinoma)
Outline: as §1

[9] = test system: OAW-28 (Ovarian Carcinoma)
Outline: as §1

[10] = test system: PL4 (Pancreatic Carcinoma)
Outline: as §1

[11] = test system: RCC-JW (Kidney Carcinoma)
Outline: as §1

[12] = test system: SAT (Head and Neck Carcinoma)
Outline: as §1

[13] = test system: SCC-4 (Oral Cavity Carcinoma)
Outline: as §1

SK-N-SH (Neuroblastoma) = test system: SK-N-SH (Neuroblastoma)
Outline: as §1

[14] = test system: SKG-IIIa (Cervical Carcinoma)
Outline: as §1

[15] = test system: SNU-C2B (Colorectal Carcinoma)
Outline: as §1

[16] = test system: SUP-M2 (T-Cell Non-Hodgkin's Lymphoma)
Outline: as §1

[17] = test system: SiHa (Cervical Carcinoma)
Outline: as §1

SMILES	Bliss excess [1]	Bliss excess [2]	Bliss excess [3]	Bliss excess (ES6 (Ewing's Sarcoma))	Bliss excess (KALS-1 (Glioblastoma))	Bliss excess [4]	Bliss excess [5]	Bliss excess [6]	Bliss excess [7]	Bliss excess [8]	Bliss excess [9]	Bliss excess [10]	Bliss excess [11]	Bliss excess [12]	Bliss excess [13]	Bliss excess (SK-N-SH (Neuroblastoma))	Bliss excess [14]	Bliss excess [15]	Bliss excess [16]	Bliss excess [17]
COc1nnc2ccc(N3CCC(c4ccc(OCCN5CCN(C)C(=O)[C@H]5C)cc4)CC3)nn12 [AZD5153] + CC1(C)CCC(CN2CCN(c3ccc(C(=O)NS(=O)(=O)c4ccc(NCC5CCOCC5)c([N+](=O)[O-])c4)c(Oc4cnc5[nH]ccc5c4)c3)CC2)=C(c2ccc(Cl)cc2)C1 [Venetoclax] (first compound max 1 µM, 7x7, partner max 1 µM)	-0.0107	0.0046	-0.0832	-0.0327	-0.0418	-0.0404	-0.011	0.0065	-0.0558	0.0782	-0.0949	0.0064	-0.0551	-0.0525	-0.0765	0.0011	-0.068	-0.0598	-0.0172	-0.0986
COc1cccc(OCCCN)c1-c1cc(Nc2cnc(C#N)cn2)n[nH]1 [Prexasertib] + O=C(c1cc(Cc2n[nH]c(=O)c3ccccc23)ccc1F)N1CCN(C(=O)C2CC2)CC1 [Olaparib] (first compound max 1 µM, 7x7, partner max 10 µM)	-0.0329	-0.0458	-0.025	0.0253	-0.115	-0.0572	-0.027	-0.0802	-0.044	-0.0327	-0.0348	0.0356	-0.0896	-0.0473	-0.109	-0.0217	-0.0274	-0.0414	0.0298	0.0226
COc1nnc2ccc(N3CCC(c4ccc(OCCN5CCN(C)C(=O)[C@H]5C)cc4)CC3)nn12 [AZD5153] + C[C@@H]1COCCN1C2=NC(=NC(=C2)C3(CC3)[S@](=N)(=O)C)C4=C5C=CNC5=NC=C4 [AZD6738] (first compound max 1 µM, 7x7, partner max 10 µM)	0.0515	-0.0692	0.0213	0.0339	-0.0314	0.0525	-0.0132	-0.0211	-0.0799	-0.0228	0.11	-0.0425	0.0051	0.031	-0.0283	-0.0611	0.0105	0.0233	-0.0205	0.101
Cc1c2c(nn1C)CSCc1cc(n(C)n1)CSc1cc(c3ccccc3c1)OCCCc1c(C(=O)O)n(C)c3c-2c(Cl)ccc13 [AZD5991] + C[C@@H]1COCCN1C2=NC(=NC(=C2)C3(CC3)[S@](=N)(=O)C)C4=C5C=CNC5=NC=C4 [AZD6738] (first compound max 1 µM, 7x7, partner max 10 µM)	-0.0501	-0.024	0.0578	0.0289	0.0165	0.0224	-0.0346	0.0254	-0.0012	0.0858	0.0799	0.0606	0.0192	0.0466	-0.0003	-0.0225	0.0106	-0.0199	0.0505	0.0122
CCc1c2c(nc3ccc(O)cc13)-c1cc3c(c(=O)n1C2)COC(=O)[C@]3(O)CC [SN-38] + CN(C)CCCOc1ccc(-c2ccc3ncc4c(c3c2)n(C2CCOCC2)c(=O)n4C)cn1 [AZD0156] (first compound max 0.3 µM, 7x7, partner max 1 µM)	0.0058	0.199	-0.019	0.0441	0.0189	0.0263	0.139	-0.142	0.0402	0.0847	-0.0053	0.0253	0.05	0.0361	0.0021	-0.104	0.0352	0.0089	0.061	-0.0241
NC1(C(=O)N[C@@H](CCO)c2ccc(Cl)cc2)CCN(c2ncnc3[nH]ccc23)CC1 [Capivasertib] + Cn1cnc2c(F)c(Nc3ccc(Br)cc3Cl)c(C(=O)NOCCO)cc21 [Selumetinib] (first compound max 10 µM, 7x7, partner max 10 µM)	0.0513	-0.0381	-0.0148	-0.0397	0.0079	-0.0267	-0.0123	0.121	-0.0231	0.0023	-0.0034	-0.0314	0.0296	0.0768	0.042	-0.0223	-0.0066	-0.022	0.0835	-0.0081
COc1nnc2ccc(N3CCC(c4ccc(OCCN5CCN(C)C(=O)[C@H]5C)cc4)CC3)nn12 [AZD5153] + C=CCn1c(=O)c2cnc(Nc3ccc(N4CCN(C)CC4)cc3)nc2n1-c1cccc(C(C)(C)O)n1 [AZD1775] (first compound max 1 µM, partner max 1 µM)	-0.0546	-0.0862	-0.0053	-0.0553	-0.12	-0.0128	-0.0549	-0.0204	-0.0633	-0.0427	-0.0382	0.0251	-0.022	-0.0305	-0.0421	-0.0602	-0.0221	-0.035	-0.0123	-0.0583
